Data: US20240415918A1, “Polypeptide and its use as a CCK receptor agonist/antagonist” (Centre for Regenerative Medicine & Health, Hong Kong …, priority 2021, published 2024)

Target: T1, CCK-B receptors (CHO-CCK) (Homo sapiens, UniProt P32239)
T1 construct: expressed in transfected cells; host or cells: CHO (CHO-CCK model cells)
T1 sequence (P32239 1-447): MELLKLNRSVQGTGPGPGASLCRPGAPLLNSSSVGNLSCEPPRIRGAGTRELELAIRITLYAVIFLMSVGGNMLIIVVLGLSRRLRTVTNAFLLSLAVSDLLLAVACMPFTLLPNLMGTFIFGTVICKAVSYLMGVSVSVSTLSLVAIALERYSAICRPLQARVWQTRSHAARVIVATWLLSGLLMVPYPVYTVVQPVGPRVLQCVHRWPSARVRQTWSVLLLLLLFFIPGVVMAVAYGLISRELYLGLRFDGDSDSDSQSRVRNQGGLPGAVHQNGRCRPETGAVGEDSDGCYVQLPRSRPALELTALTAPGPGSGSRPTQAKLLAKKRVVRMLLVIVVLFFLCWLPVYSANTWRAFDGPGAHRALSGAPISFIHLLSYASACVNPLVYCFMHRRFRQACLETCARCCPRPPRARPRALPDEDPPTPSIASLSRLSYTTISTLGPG
Assay: Calcium flux (Fluo-8) agonist test on CHO-CCK model cells
Format: cell-based
Details: for Agonistic Activity (%) at 10 μM: compound at 10 μM, percentage of signal of 20 nM CCK8 alone
Description: • To detect changes in intracellular calcium ion concentration after the compound acts on model cells containing CCK-B receptors (CHO-CCK).
• 1. The compound was formulated to a 10 mM mother liquor with DMSO, and then diluted into a series of 9 concentrations with a 3-fold gradient to form a 1000× stock solution.
2.1 Agonist • The compound stock solution was subjected to 200-fold dilution with HHBS buffer to form a 5× working solution.
• 1. Plate CHO-CCK cells in a 96-well plate with media containing 1% FBS, 30,000 cells/well/100 μL, and incubate overnight at 37° C. • 2. Prepare 1×Fluo-8 analysis buffer: mix 9 mL of HHBS, 1 mL of 10× Pluronic F127 Plus and 20 μL of Fluo-8 thoroughly for later use. • 3. Add Fluo-8 dye working solution to the cell plate, 100 μL/well. First incubate in a 37° C. incubator for 30 min, and then take it out and incubate at room temperature in the dark for 30 min. • 4. In the process of incubating cells, the compounds to be detected were prepared with HHBS. • 5.
The agonism/antagonism EC50 of the compound can be obtained by plotting the fitting curve with the agonism/antagonism percentage as Y-axis and the concentration of the compound as X-axis.

CS(=O)(=O)CC[C@H](NC(=O)[C@H](N)Cc1c[nH]c2ccccc12)C(=O)N[C@@H](CC(=O)O)C(=O)N[C@@H](Cc1ccc(C#N)cc1)C(N)=O [HT-66, D-Trp-Met(O2)-Asp-Phe(4-CN)-NH2]
Agonistic Activity (%) at 10 μM: 0.33%

CS(=O)(=O)CC[C@H](NC(=O)[C@H](N)Cc1c[nH]c2ccccc12)C(=O)N[C@@H](CC(=O)O)C(=O)N[C@@H](Cc1ccc([N+](=O)[O-])cc1)C(N)=O [HT-67, D-Trp-Met(O2)-Asp-Phe(4-NO2)-NH2]
Agonistic Activity (%) at 10 μM: −1.49%

CS(=O)(=O)CC[C@H](NC(=O)[C@H](N)Cc1c[nH]c2ccccc12)C(=O)N[C@@H](CC(=O)O)C(=O)N[C@@H](Cc1ccc(Br)cc1)C(N)=O [HT-68, D-Trp-Met(O2)-Asp-Phe(4-Br)-NH2]
Agonistic Activity (%) at 10 μM: 15.61%

CS(=O)(=O)CC[C@H](NC(=O)[C@H](N)Cc1c[nH]c2ccccc12)C(=O)N[C@@H](CC(=O)O)C(=O)N[C@@H](Cc1ccc(Cl)cc1)C(N)=O [HT-69, D-Trp-Met(O2)-Asp-Phe(4-Cl)-NH2]
Agonistic Activity (%) at 10 μM: 20.02%

CS(=O)(=O)CC[C@H](NC(=O)[C@H](N)Cc1c[nH]c2ccccc12)C(=O)N[C@@H](CC(=O)O)C(=O)N[C@@H](Cc1ccc(F)cc1)C(N)=O [HT-70, D-Trp-Met(O2)-Asp-Phe(4-F)-NH2]
EC50 (CHO-CCK cells, compound alone, 100% = 20 nM CCK8): 11.4 µM | Agonistic Activity (%) at 10 μM: 35.31%

CS(=O)(=O)CC[C@H](NC(=O)[C@H](N)Cc1c[nH]c2ccccc12)C(=O)N[C@@H](CC(=O)O)C(=O)N[C@@H](Cc1ccc(I)cc1)C(N)=O [HT-71, D-Trp-Met(O2)-Asp-Phe(4-I)-NH2]
Agonistic Activity (%) at 10 μM: 13.13%

COC(=O)C[C@H](NC(=O)[C@H](CCSC)NC(=O)[C@H](N)Cc1c[nH]c2ccccc12)C(=O)N[C@@H](Cc1ccccc1[N+](=O)[O-])C(N)=O [HT-75, D-Trp-Met-Asp(Ome)-Phe(2-NO2)-NH2]
Agonistic Activity (%) at 10 μM: −0.20%

COC(=O)C[C@H](NC(=O)[C@H](CCSC)NC(=O)[C@H](N)Cc1c[nH]c2ccccc12)C(=O)N[C@@H](Cc1ccccc1F)C(N)=O [HT-76, D-Trp-Met-Asp(Ome)-Phe(2-F)-NH2]
Agonistic Activity (%) at 10 μM: 23.09%

COC(=O)C[C@H](NC(=O)[C@H](CCSC)NC(=O)[C@H](N)Cc1c[nH]c2ccccc12)C(=O)N[C@@H](Cc1cccc(Cl)c1)C(N)=O [HT-77, D-Trp-Met-Asp(Ome)-Phe(3-Cl)-NH2]
Agonistic Activity (%) at 10 μM: 1.83%

COC(=O)C[C@H](NC(=O)[C@H](CCSC)NC(=O)[C@H](N)Cc1c[nH]c2ccccc12)C(=O)N[C@@H](Cc1ccc(C)cc1)C(N)=O [HT-81, D-Trp-Met-Asp(Ome)-Phe(4-Me)-NH2]
Agonistic Activity (%) at 10 μM: 12.27%

COC(=O)C[C@H](NC(=O)[C@H](CCSC)NC(=O)[C@H](N)Cc1c[nH]c2ccccc12)C(=O)N[C@@H](Cc1ccc(N=[N+]=[N-])cc1)C(N)=O [HT-82, D-Trp-Met-Asp(Ome)-Phe(4-N3)-NH2]
Agonistic Activity (%) at 10 μM: 12.78%

COC(=O)C[C@H](NC(=O)[C@H](CCSC)NC(=O)[C@H](N)Cc1c[nH]c2ccccc12)C(=O)N[C@@H](Cc1ccc(C#N)cc1)C(N)=O [HT-83, D-Trp-Met-Asp(Ome)-Phe(4-CN)-NH2]
Agonistic Activity (%) at 10 μM: 1.91%

COC(=O)C[C@H](NC(=O)[C@H](CCSC)NC(=O)[C@H](N)Cc1c[nH]c2ccccc12)C(=O)N[C@@H](Cc1ccc([N+](=O)[O-])cc1)C(N)=O [HT-84, D-Trp-Met-Asp(Ome)-Phe(4-NO2)-NH2]
Agonistic Activity (%) at 10 μM: 3.24%

COC(=O)C[C@H](NC(=O)[C@H](CCSC)NC(=O)[C@H](N)Cc1c[nH]c2ccccc12)C(=O)N[C@@H](Cc1ccc(Br)cc1)C(N)=O [HT-85, D-Trp-Met-Asp(Ome)-Phe(4-Br)-NH2]
Agonistic Activity (%) at 10 μM: 7.32%

COC(=O)C[C@H](NC(=O)[C@H](CCSC)NC(=O)[C@H](N)Cc1c[nH]c2ccccc12)C(=O)N[C@@H](Cc1ccc(Cl)cc1)C(N)=O [HT-86, D-Trp-Met-Asp(Ome)-Phe(4-Cl)-NH2]
Agonistic Activity (%) at 10 μM: −0.94%

COC(=O)C[C@H](NC(=O)[C@H](CCSC)NC(=O)[C@H](N)Cc1c[nH]c2ccccc12)C(=O)N[C@@H](Cc1ccc(I)cc1)C(N)=O [HT-88, D-Trp-Met-Asp(Ome)-Phe(4-I)-NH2]
Agonistic Activity (%) at 10 μM: −4.64%

COC(=O)C[C@H](NC(=O)[C@H](CCSC)NC(=O)[C@H](N)Cc1c[nH]c2ccccc12)C(=O)N[C@@H](Cc1cc(F)c(F)c(F)c1)C(N)=O [HT-91, D-Trp-Met-Asp(Ome)-Phe(3,4,5-TriF)-NH2]
Agonistic Activity (%) at 10 μM: 3.12%

CSCC[C@H](NC(=O)[C@H](N)Cc1c[nH]c2ccccc12)C(=O)N[C@@H](CC(=O)OCCNc1cccc2c(O)cccc12)C(=O)N[C@@H](Cc1ccc(Cl)cc1)C(N)=O [HT-103, D-Trp-Met-Asp(EDANS)-Phe(4-Cl)-NH2]
Agonistic Activity (%) at 10 μM: 1.03%

COC(=O)C[C@H](NC(=O)[C@H](CC[S+](C)[O-])NC(=O)[C@H](N)Cc1c[nH]c2ccccc12)C(=O)N[C@@H](Cc1ccccc1[N+](=O)[O-])C(N)=O (stereo partly drawn) [HT-109, D-Trp-Met(O)-Asp(Ome)-Phe(2-NO2)-NH2]
Agonistic Activity (%) at 10 μM: 3.33%

COC(=O)C[C@H](NC(=O)[C@H](CC[S+](C)[O-])NC(=O)[C@H](N)Cc1c[nH]c2ccccc12)C(=O)N[C@@H](Cc1ccccc1F)C(N)=O (stereo partly drawn) [HT-110, D-Trp-Met(O)-Asp(Ome)-Phe(2-F)-NH2]
Agonistic Activity (%) at 10 μM: 1.36%

COC(=O)C[C@H](NC(=O)[C@H](CC[S+](C)[O-])NC(=O)[C@H](N)Cc1c[nH]c2ccccc12)C(=O)N[C@@H](Cc1cccc(Cl)c1)C(N)=O (stereo partly drawn) [HT-111, D-Trp-Met(O)-Asp(Ome)-Phe(3-Cl)-NH2]
Agonistic Activity (%) at 10 μM: −7.28%

COC(=O)C[C@H](NC(=O)[C@H](CC[S+](C)[O-])NC(=O)[C@H](N)Cc1c[nH]c2ccccc12)C(=O)N[C@@H](Cc1cccc(F)c1)C(N)=O (stereo partly drawn) [HT-112, D-Trp-Met(O)-Asp(Ome)-Phe(3-F)-NH2]
Agonistic Activity (%) at 10 μM: 2.89%

COC(=O)C[C@H](NC(=O)[C@H](CC[S+](C)[O-])NC(=O)[C@H](N)Cc1c[nH]c2ccccc12)C(=O)N[C@@H](Cc1cccc(I)c1)C(N)=O (stereo partly drawn) [HT-113, D-Trp-Met(O)-Asp(Ome)-Phe(3-I)-NH2]
Agonistic Activity (%) at 10 μM: 6.21%

COC(=O)C[C@H](NC(=O)[C@H](CC[S+](C)[O-])NC(=O)[C@H](N)Cc1c[nH]c2ccccc12)C(=O)N[C@@H](Cc1cccc(Br)c1)C(N)=O (stereo partly drawn) [HT-114, D-Trp-Met(O)-Asp(Ome)-Phe(3-Br)-NH2]
Agonistic Activity (%) at 10 μM: −8.48%

COC(=O)C[C@H](NC(=O)[C@H](CC[S+](C)[O-])NC(=O)[C@H](N)Cc1c[nH]c2ccccc12)C(=O)N[C@@H](Cc1ccc(C)cc1)C(N)=O (stereo partly drawn) [HT-115, D-Trp-Met(O)-Asp(Ome)-Phe(4-Me)-NH2]
Agonistic Activity (%) at 10 μM: 9.82%

COC(=O)C[C@H](NC(=O)[C@H](CC[S+](C)[O-])NC(=O)[C@H](N)Cc1c[nH]c2ccccc12)C(=O)N[C@@H](Cc1ccc(N=[N+]=[N-])cc1)C(N)=O (stereo partly drawn) [HT-116, D-Trp-Met(O)-Asp(Ome)-Phe(4-N3)-NH2]
Agonistic Activity (%) at 10 μM: 10.90%

COC(=O)C[C@H](NC(=O)[C@H](CC[S+](C)[O-])NC(=O)[C@H](N)Cc1c[nH]c2ccccc12)C(=O)N[C@@H](Cc1ccc(C#N)cc1)C(N)=O (stereo partly drawn) [HT-117, D-Trp-Met(O)-Asp(Ome)-Phe(4-CN)-NH2]
Agonistic Activity (%) at 10 μM: 9.81%

COC(=O)C[C@H](NC(=O)[C@H](CC[S+](C)[O-])NC(=O)[C@H](N)Cc1c[nH]c2ccccc12)C(=O)N[C@@H](Cc1ccc([N+](=O)[O-])cc1)C(N)=O (stereo partly drawn) [HT-118, D-Trp-Met(O)-Asp(Ome)-Phe(4-NO2)-NH2]
Agonistic Activity (%) at 10 μM: 0.13%

COC(=O)C[C@H](NC(=O)[C@H](CC[S+](C)[O-])NC(=O)[C@H](N)Cc1c[nH]c2ccccc12)C(=O)N[C@@H](Cc1ccc(Br)cc1)C(N)=O (stereo partly drawn) [HT-119, D-Trp-Met(O)-Asp(Ome)-Phe(4-Br)-NH2]
Agonistic Activity (%) at 10 μM: 6.93%

COC(=O)C[C@H](NC(=O)[C@H](CC[S+](C)[O-])NC(=O)[C@H](N)Cc1c[nH]c2ccccc12)C(=O)N[C@@H](Cc1ccc(Cl)cc1)C(N)=O (stereo partly drawn) [HT-120, D-Trp-Met(O)-Asp(Ome)-Phe(4-Cl)-NH2]
Agonistic Activity (%) at 10 μM: −1.00%

COC(=O)C[C@H](NC(=O)[C@H](CC[S+](C)[O-])NC(=O)[C@H](N)Cc1c[nH]c2ccccc12)C(=O)N[C@@H](Cc1ccc(F)cc1)C(N)=O (stereo partly drawn) [HT-121, D-Trp-Met(O)-Asp(Ome)-Phe(4-F)-NH2]
Agonistic Activity (%) at 10 μM: 10.99%
